According to PubChem BioAssay (NCI):
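Test compounds were applied to cells in 96-well plates for 48 hours at 5 doses. TGI is the concentration that stops growth completely.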

Assays:
Assay in all cases: NCI tumour cell line growth inhibition, 48 h
[1] = tested on: A549 NSCLC
[2] = tested on: ACHN renal
[3] = tested on: HCT-116 colon
[4] = tested on: MDA-MB-231 breast
[5] = tested on: NCI-H226 lung
[6] = tested on: NCI-H23 lung
[7] = tested on: SK-MEL-28 melanoma
[8] = tested on: SNB-19 CNS
[9] = tested on: T-47D breast
[10] = tested on: CCRF-CEM leukemia

Row | SMILES | TGI [1] [µM] | TGI [2] [µM] | TGI [3] [µM] | TGI [4] [µM] | TGI [5] [µM] | TGI [6] [µM] | TGI [7] [µM] | TGI [8] [µM] | TGI [9] [µM] | TGI [10] [µM]
1 | Fc1ccc2c(c1)nc1n2C(c2c(F)cccc2F)SC1 (stereo not drawn) | > 100 | > 100 | > 100 | > 100 | > 100 | > 100 | > 100 | > 100 | > 100 | 
2 | COC(=O)/C=C\C(C#N)(C#N)N=Cc1ccc(Br)cc1 | > 74.8 | 8.92 | > 60.5 | 8.48 | 20.6 | 49.5 | 32.1 | 55.2 | 14 | 5.91
3 | CCOC(=O)CCC(NC(=O)c1ccc(Nc2nc3ccccc3nc2C(=O)OCC)s1)C(=O)OCC (stereo not drawn) | > 100 |  | > 100 | > 100 | > 100 |  | > 100 | > 100 | > 100 | 
4 | COc1ccc(/C=C(/c2ccc(OC)cc2)c2c(Cl)cc(Cl)c(/C(=C\c3ccc(OC)cc3)c3ccc(OC)cc3)c2N=Nc2ccccc2)cc1 | > 100 | > 100 | > 100 | > 100 |  | > 100 | > 100 | > 100 | > 100 | > 100
5 | O=C(NNc1nc(-c2ccccc2)cs1)Nc1ccccc1 | 48 | > 100 | 58.5 | 54.4 | 46.5 | 41.2 | 85.6 | > 100 | 66.8 | > 100
6 | C=C1CC(O)C2C(=C)C(=O)OC2C2C(C)C(=O)CC12 (stereo not drawn) | 41 | 17.9 | > 100 | 35.4 |  | 31.8 | 46.5 | 38.5 | 73 | 41.4
7 | COc1ccc(C2=Nc3c(nc(SC)[nH]c3=O)NC(c3ccccc3)C2)cc1 (stereo not drawn) | 66.5 | 56.7 | > 100 | 30 | 65.2 | 45.6 |  | 65.4 |  | 98.6
8 | Cc1ccsc1/C=N/Nc1cc(C)c2ccccc2n1 | 52.3 | 34.9 | 28.7 | 12.5 | 37.1 | 31.3 | 30.2 | 32.8 | > 100 | 57.8
9 | Nc1ccn(CC(O)c2cc3ccccc3[nH]2)c(=O)n1 (stereo not drawn) | > 100 | > 100 | > 100 | > 100 | > 100 | > 100 | > 100 | > 100 | > 100 | > 100
10 | CC(C)=C=CP(=O)(O)c1ccccc1 | > 100 | > 100 | > 100 |  | > 100 | > 100 | > 100 | > 100 | > 100 | 
11 | COc1ccc(/C=C2\OC(=O)C(Cl)=C2c2ccc(OC)c(Cl)c2)cc1 | > 100 | > 100 | > 100 |  |  | 44.9 | > 100 | > 100 | > 100 | > 100
12 | COc1ccc(/N=N/C(=NNC(=O)c2ccc(C)cc2)c2ccc(N(C)C)cc2)cc1 | > 100 | > 89.9 | > 100 | > 100 | > 100 | > 100 | > 100 | > 100 | > 33.8 | > 100
